Reference: ChEMBL document CHEMBL1201862, “PubChem BioAssay data set” (2004)
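Assay format: 96-well plates, 48-hour exposure. GI50 = concentration required for 50% inhibition of growth.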 The source made the active and inactive calls. No stated cut-off is given here; in the data, active = GI50 up to about 1.1 µM and inactive = higher.

Key:
Assay in all cases: growth of human tumour cells (NCI), 48 h
[1] = system: IGROV-1
[2] = system: SF-539
[3] = system: MCF7
[4] = system: HCT-15
[5] = system: OVCAR-3
[6] = system: EKVX
[7] = system: NCI-H226
[8] = system: HCT-116
[9] = system: SW-620
[10] = system: ACHN
[11] = system: SF-268
[12] = system: KM12
[13] = system: UACC-62
[14] = system: SR
[15] = system: HOP-62
[16] = system: SN12C
[17] = system: MOLT-4
[18] = system: MDA-MB-435
[19] = system: TK-10
[20] = system: HL-60

Structure (SMILES) | GI50 [1] | GI50 [2] | GI50 [3] | GI50 [4] [µM] | GI50 [5] | GI50 [6] | GI50 [7] | GI50 [8] | GI50 [9] | GI50 [10] | GI50 [11] | GI50 [12] | GI50 [13] | GI50 [14] | GI50 [15] | GI50 [16] | GI50 [17] | GI50 [18] | GI50 [19] | GI50 [20]
O=C(N/N=C\c1ccc(Cl)cc1)Nc1ccc2ccccc2c1 | 61.5 µM (inactive) | 27.8 µM (inactive) | 87.9 µM (inactive) | > 100 | > 100 µM (inactive) | 64.9 µM (inactive) | > 100 µM (inactive) | 53.6 µM (inactive) | 46.2 µM (inactive) | 43.6 µM (inactive) | 26.9 µM (inactive) | 79.3 µM (inactive) | 34.5 µM (inactive) | 36.2 µM (inactive) | 21.9 µM (inactive) | 40.6 µM (inactive) | > 100 µM (inactive) | 49.7 µM (inactive) | 55.5 µM (inactive) | 
C[N+]12C=CC=C1C(N1CCCC1)c1scc(-c3ccccc3)c12 (configuration not stated) | 4.99 µM (inactive) |  | 14.8 µM (inactive) |  | 7.83 µM (inactive) | 14.5 µM (inactive) | 1.6 µM (inactive) | 32.3 µM (inactive) | 93.3 µM (inactive) |  | 15.6 µM (inactive) | 8.55 µM (inactive) | 21 µM (inactive) | 12.6 µM (inactive) | 41.7 µM (inactive) | 5.26 µM (inactive) | 19.3 µM (inactive) | 36.2 µM (inactive) |  | 
O=C1/C(=C/c2ccc(Cl)cc2)NC(=S)N1CN1CCCCC1 | 33.8 µM (inactive) |  | 29.2 µM (inactive) | 22.6 | 36.7 µM (inactive) | 28.2 µM (inactive) | 32.3 µM (inactive) | 34.4 µM (inactive) | 20.7 µM (inactive) | 24.6 µM (inactive) | 20.5 µM (inactive) | 38.7 µM (inactive) | 13.1 µM (inactive) | 34.8 µM (inactive) | 87.9 µM (inactive) | 40.6 µM (inactive) | 30.2 µM (inactive) | 45.5 µM (inactive) | 39 µM (inactive) | 
Cc1cccc2nc3cccc(C(=O)NCCC[N+](C)(CCCNC(=O)c4cccc5nc6cccc(C)c6nc45)Cc4ccc([N+](=O)[O-])n4C)c3nc12 | 0.703 µM (active) |  | 0.552 µM (active) | 2.4 | 3.98 µM (inactive) | 2.1 µM (inactive) |  | 0.0615 µM (active) | 0.284 µM (active) | 0.321 µM (active) |  | 2.26 µM (inactive) | 5.4 µM (inactive) | 0.294 µM (active) | 0.809 µM (active) | 0.839 µM (active) | 0.377 µM (active) | > 27 µM (inactive) | > 100 µM (inactive) | 
CC(C)(C)OC(=O)NCCCCCCC(=O)Cc1ccccc1 | > 100 µM (inactive) |  | > 100 µM (inactive) | > 100 | > 100 µM (inactive) | > 100 µM (inactive) | > 100 µM (inactive) | 84.3 µM (inactive) | > 100 µM (inactive) | > 100 µM (inactive) | > 100 µM (inactive) | > 100 µM (inactive) |  | > 100 µM (inactive) | > 100 µM (inactive) | > 100 µM (inactive) | 59 µM (inactive) | > 100 µM (inactive) | > 100 µM (inactive) | 
CCN1CCC(O)(c2ccc(Oc3ccc(F)cc3)cc2)C(C(=O)c2ccc(Oc3ccc(F)cc3)cc2)C1 (configuration not stated) | 11 µM (inactive) | 18.5 µM (inactive) | 11.5 µM (inactive) | 11.5 | 15.2 µM (inactive) | 16.6 µM (inactive) | 13.6 µM (inactive) | 13.6 µM (inactive) | 15.6 µM (inactive) | 13.8 µM (inactive) | 16.9 µM (inactive) | 4.42 µM (inactive) | 14.8 µM (inactive) | 2.33 µM (inactive) | 15.8 µM (inactive) | 14.2 µM (inactive) | 14 µM (inactive) | 16.8 µM (inactive) | 11 µM (inactive) | 
CCN(CC)C1=Nc2ccccc2-n2c(C)cnc2C1 | > 100 µM (inactive) | > 100 µM (inactive) | > 100 µM (inactive) | > 100 | > 100 µM (inactive) | > 100 µM (inactive) | > 100 µM (inactive) | > 100 µM (inactive) | > 100 µM (inactive) | > 100 µM (inactive) | > 100 µM (inactive) | > 100 µM (inactive) | > 100 µM (inactive) |  |  | > 100 µM (inactive) | > 100 µM (inactive) | > 100 µM (inactive) | > 100 µM (inactive) | > 100 µM (inactive)
CC(=O)O/C(=C(/C#N)C(=O)O)C1C(C(=O)O)C(c2ccccc2[N+](=O)[O-])C=C(c2ccco2)N1c1ccncc1 (configuration not stated) | 1.12 µM (inactive) | 1.95 µM (inactive) | 1.03 µM (active) | 1.71 | 2.94 µM (inactive) | 9.25 µM (inactive) | 4.63 µM (inactive) | 1.52 µM (inactive) | 1.85 µM (inactive) | 2.17 µM (inactive) | 9.23 µM (inactive) | 1.48 µM (inactive) | 7.52 µM (inactive) |  | 7.82 µM (inactive) | 4.86 µM (inactive) | 2.54 µM (inactive) | 4.62 µM (inactive) | 3.33 µM (inactive) | 2.75 µM (inactive)
CN1[C@@H]2CCCC[C@H]2N(C)P1(=O)C(O)/C=C/c1ccccc1 (some centres not stated) | > 100 µM (inactive) |  | > 100 µM (inactive) | > 100 | > 100 µM (inactive) | > 100 µM (inactive) | > 100 µM (inactive) | > 100 µM (inactive) | > 100 µM (inactive) | > 100 µM (inactive) | > 100 µM (inactive) | > 100 µM (inactive) | > 100 µM (inactive) |  | > 100 µM (inactive) | > 100 µM (inactive) | > 100 µM (inactive) | > 100 µM (inactive) | > 100 µM (inactive) | > 100 µM (inactive)
CC(=O)OCC12C(OC(C)=O)C[C@@H](C)C3(CC(c4ccoc4)OC3=O)C1CCC(OC(C)=O)C21CO1 (some centres not stated) | > 100 µM (inactive) | > 100 µM (inactive) | > 100 µM (inactive) | > 100 | > 100 µM (inactive) | > 100 µM (inactive) | > 100 µM (inactive) | > 100 µM (inactive) | > 100 µM (inactive) | > 100 µM (inactive) | > 100 µM (inactive) | > 100 µM (inactive) | > 100 µM (inactive) |  | > 100 µM (inactive) | > 100 µM (inactive) | > 100 µM (inactive) | > 100 µM (inactive) | > 100 µM (inactive) | > 100 µM (inactive)
COc1ccc(C2C3=C(COC3=O)Oc3cc4c(cc32)OCO4)cc1OC (configuration not stated) | 0.713 µM (active) | 0.547 µM (active) | 0.408 µM (active) | 0.397 | 1.38 µM (inactive) | 3.61 µM (inactive) | 4.65 µM (inactive) | 0.465 µM (active) | 0.492 µM (active) | 1.82 µM (inactive) | 6.17 µM (inactive) | 0.301 µM (active) | 0.859 µM (active) |  | 1.44 µM (inactive) | 5.26 µM (inactive) | 0.466 µM (active) | 0.123 µM (active) | 12.1 µM (inactive) | 0.208 µM (active)
